# In ChEMBL document CHEMBL4715789, “Identification of a Potential Antimalarial Drug Candidate from a Series of 2-Aminopyrazines by Optimization of Aqueous Solubility and Potency across the Parasite Life Cycle” (J Med Chem, 2016):
# Columns and labels:
# [1] = Apparent average plasma concentration in NMRI mouse plasma infected with Plasmodium berghei ANKA at 3 mg/kg, po qd for 4 consecutive days and measured post last dose; format: ADME, organism-based; conditions: in vivo, 96 h, time 4 day
# [2] = Aqueous solubility of compound in pH 2 0.01M HCl incubated for 2 hrs under shaking condition by shake-flask method based HPLC-DAD analysis; format: physicochemical
# [3] = tested on: Plasmodium falciparum; assay: microbe, parasite or virus in culture; conditions: NF54, Erythrocyte
# Description: Antiplasmodial activity against multidrug-sensitive Plasmodium falciparum NF54 infected in human erythrocytes assessed as reduction in [3H]hypoxanthine incorporation preincubated for 48 hrs followed by [3H]hypoxanthine addition and measured after 24 hrs by liquid scintillation counting method
# [4] = tested on: Plasmodium falciparum; assay: microbe, parasite or virus in culture; conditions: K1, Erythrocyte
# Description: Antiplasmodial activity against multidrug-resistant Plasmodium falciparum K1 infected in erythrocytes assessed as reduction in [3H]hypoxanthine incorporation preincubated for 48 hrs followed by [3H]hypoxanthine addition and measured after 24 hrs by liquid scintillation counting method
# [5] = Aqueous solubility of compound in pH 6.5 PBS incubated for 2 hrs under shaking condition by shake-flask method based HPLC-DAD analysis; format: physicochemical
# [6] = Cmax(app) in NMRI mouse plasma infected with Plasmodium berghei ANKA at 3 mg/kg, po qd for 4 consecutive days and measured post last dose; format: ADME, organism-based; conditions: time 4 day
# [7] = tested on: Plasmodium berghei; assay: Antiplasmodial activity against Plasmodium berghei ANKA infected in NMRI mouse assessed as reduction in parasitemia at 3 mg/kg, po qd for 4 consecutive days measured at day 7 post infection by flow cytometry analysis; format: functional; set-up: scale not given: the % may be the effect or the level left; conditions: time 4 day
# [8] = AUC(app) in NMRI mouse plasma infected with Plasmodium berghei ANKA at 3 mg/kg, po qd for 4 consecutive days and measured post last dose; format: ADME, organism-based; conditions: time 4 day
# [9] = tested on: Plasmodium berghei; assay: Antiplasmodial activity against Plasmodium berghei ANKA infected in NMRI mouse model assessed as mean survival days at 3 mg/kg, po qd for 4 consecutive day; format: functional; conditions: time 4 day
# [10] = tested on: Plasmodium berghei; assay: Antiplasmodial activity against Plasmodium berghei ANKA infected in NMRI mouse assessed as reduction in parasitemia at 10 mg/kg, po qd for 4 consecutive days measured at day 7 post infection by flow cytometry analysis; format: functional; set-up: scale not given: the % may be the effect or the level left; conditions: time 4 day
# [11] = Clearance in Sprague-dawley rat at 5 mg/kg, iv by LC-MS/MS analysis; format: ADME, organism-based; conditions: in vivo
# [12] = Half-life in Sprague-dawley rat at 5 mg/kg, iv by LC-MS/MS analysis; format: ADME, organism-based; conditions: in vivo
# [13] = tested on: Plasmodium falciparum; assay: Antiplasmodial activity against late stage (IV/V) Plasmodium falciparum NF54 gametocytes incubated for 48 hrs by luciferase reporter gene assay; format: functional, organism-based; conditions: NF54, 48 h
# [14] = Metabolic stability in rat liver microsomes assessed as compound remaining at 0.1 uM measured after 30 mins in presence of cofactor NADPH by LC-MS/MS analysis; format: ADME, Microsome; conditions: read-out: Stabilty
# [15] = tested on: Plasmodium berghei; assay: Antiplasmodial activity against luciferase expressing Plasmodium berghei sporozoites infected in human HepG2 cells preincubated with compound for 18 hrs followed by plasmodium infection measured after 48 hrs by bioluminescence assay; format: functional, organism-based
# [16] = Volume of distribution in Sprague-dawley rat at 5 mg/kg, iv by LC-MS/MS analysis; format: ADME, organism-based; conditions: in vivo
# [17] = tested on: Plasmodium falciparum; assay: Antiplasmodial activity against Plasmodium falciparum 3D70087/N9 infected in NOD-SCID IL2Rgamma null mouse assessed as reduction in parasitemia administered orally on day 3 to 6 post-infection and measured day 7 post infection by TER-119-PE and […] dye based flow cytometry; format: functional; conditions: 3D70087/N9, po, 120 h, time 5 day
# [18] = Metabolic stability in mouse liver microsomes assessed as compound remaining at 0.1 uM measured after 30 mins in presence of cofactor NADPH by LC-MS/MS analysis; format: ADME, Microsome; conditions: read-out: Stabilty
# [19] = Selectivity index, ratio of IC50 for cytotoxicity against CHO cells by MTT assay to IC50 for antiplasmodial activity against multidrug-sensitive Plasmodium falciparum NF54 infected in human erythrocytes; format: toxicity, cell-based; conditions: Chinese hamster, read-out: Ratio IC50
# [20] = tested on: Plasmodium berghei; assay: Antiplasmodial activity against Plasmodium berghei ANKA infected in NMRI mouse model assessed as mean survival days at 10 mg/kg, po qd for 4 consecutive day; format: functional; conditions: time 4 day
# [21] = tested on: Plasmodium falciparum; assay: Antiplasmodial activity against early stage (II/III) Plasmodium falciparum NF54 gametocytes incubated for 48 hrs by luciferase reporter gene assay; format: functional, organism-based; conditions: NF54, 48 h
# [22] = biological target: Voltage-gated inwardly rectifying potassium channel KCNH2 (Homo sapiens, UniProt Q12809); assay: Inhibition of human ERG by IonWorks patch clamp electrophysiology method
# [23] = Oral bioavailability in Sprague-dawley rat at 20 mg/kg by LC-MS/MS analysis; format: ADME, organism-based; conditions: in vivo
# [24] = tested on: Plasmodium berghei; assay: Antiplasmodial activity against Plasmodium berghei ANKA infected in NMRI mouse model assessed as reduction in parasitemia administered orally once a day for 4 consecutive days measured at day 7 post infection by flow cytometry analysis; format: functional; conditions: po, 96 h, time 4 day
# [25] = Metabolic stability in human liver microsomes assessed as compound remaining at 0.1 uM measured after 30 mins in presence of cofactor NADPH by LC-MS/MS analysis; format: ADME, Microsome; conditions: read-out: Stabilty
# [26] = tested on: hERG (KCNH2); assay: Selectivity ratio of IC50 for inhibition of human ERG by IonWorks patch clamp electrophysiology method to IC50 for antiplasmodial activity against multidrug-sensitive Plasmodium falciparum NF54 infected in human erythrocytes; format: toxicity, cell-based; conditions: read-out: Ratio IC50
# [27] = tested on: Plasmodium falciparum; assay: Antimalarial activity against Plasmodium falciparum 3D70087/N9 infected in NOD-SCID IL2Rgamma null mouse assessed as blood AUC level require to show 90% reduction in parasitemia administered orally on day 3 to 6 post-infection and measured day 7 post infection; format: functional, organism-based; conditions: time 5.0 day
# [28] = Half-life in Sprague-dawley rat at 20 mg/kg, po by LC-MS/MS analysis; format: ADME, organism-based; conditions: in vivo
# Sequence of Voltage-gated inwardly rectifying potassium channel KCNH2 (Q12809 whole entry): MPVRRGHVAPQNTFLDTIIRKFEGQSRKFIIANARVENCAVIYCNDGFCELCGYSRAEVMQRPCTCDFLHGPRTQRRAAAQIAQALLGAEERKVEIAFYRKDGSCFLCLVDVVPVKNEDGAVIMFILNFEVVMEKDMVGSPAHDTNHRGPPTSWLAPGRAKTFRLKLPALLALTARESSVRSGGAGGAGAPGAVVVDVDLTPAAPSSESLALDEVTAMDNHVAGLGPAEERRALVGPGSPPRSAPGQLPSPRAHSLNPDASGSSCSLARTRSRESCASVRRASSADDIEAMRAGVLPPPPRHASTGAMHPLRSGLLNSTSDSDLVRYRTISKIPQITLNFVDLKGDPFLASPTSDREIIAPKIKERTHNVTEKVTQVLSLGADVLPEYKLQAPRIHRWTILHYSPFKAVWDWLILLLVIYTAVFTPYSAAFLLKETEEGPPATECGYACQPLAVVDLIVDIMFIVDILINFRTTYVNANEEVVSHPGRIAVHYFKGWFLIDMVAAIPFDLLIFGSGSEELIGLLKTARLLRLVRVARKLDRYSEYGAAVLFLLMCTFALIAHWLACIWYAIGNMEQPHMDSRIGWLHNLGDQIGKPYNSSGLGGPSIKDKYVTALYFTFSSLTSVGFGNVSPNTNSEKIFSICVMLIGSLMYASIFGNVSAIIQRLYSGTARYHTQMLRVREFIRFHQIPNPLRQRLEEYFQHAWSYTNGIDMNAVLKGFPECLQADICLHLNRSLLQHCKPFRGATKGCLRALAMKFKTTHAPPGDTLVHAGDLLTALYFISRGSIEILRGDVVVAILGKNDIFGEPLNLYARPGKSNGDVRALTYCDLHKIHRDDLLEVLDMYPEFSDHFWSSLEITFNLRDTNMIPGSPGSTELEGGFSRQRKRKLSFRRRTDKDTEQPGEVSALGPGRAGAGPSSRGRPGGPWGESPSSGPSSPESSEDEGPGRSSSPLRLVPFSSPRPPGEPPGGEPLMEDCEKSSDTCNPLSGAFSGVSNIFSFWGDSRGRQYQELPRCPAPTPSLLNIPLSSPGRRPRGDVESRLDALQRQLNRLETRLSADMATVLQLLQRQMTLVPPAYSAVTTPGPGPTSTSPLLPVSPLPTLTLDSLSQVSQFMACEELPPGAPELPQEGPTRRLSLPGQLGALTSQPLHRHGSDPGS
Compound,Cave [1],solubility thermodynamic at 2 h [2],IC50 [3],IC50 [4],solubility thermodynamic at 2 h [5],Cmax [6],Activity [7],AUC at 96 h [8],MSD [9],Activity [10],IC50 [13],"remaining at 0.5 h, 0.1 µM [14]",ED90 [17],"remaining at 0.5 h, 0.1 µM [18]",selectivity ratio [19],MSD [20],IC50 [21],IC50 [22],bioavailability [23],"remaining at 0.5 h, 0.1 µM [25]",also measured
CC(C)(C)N1CCN(C(=O)c2ccc(-c3cnc(N)c(-c4ccc(C(F)(F)F)nc4)n3)cc2)CC1,570 nM,200 µM,8.9 nM,6.4 nM,113 µM,1520 nM,88%,4.34 µM·h,14 days,,,,,,,,,,,,
Nc1ncc(-c2ccc(C(=O)N3CC[C@@H](O)C3)cc2)nc1-c1ccc(C(F)(F)F)cc1,1930 nM,103 µM,22 nM,20 nM,90 µM,3290 nM,,33.2 µM·h,8 days,100%,137 nM,> 90%,0.14 mg/kg,> 90%,> 1800,26 days,323 nM,> 33000 nM,71%,> 90%,clearance [11]: 13.5 mL/min/kg; half-life [12]: 5.3 h; IC50 [15]: 14 nM; Vd [16]: 8.2 L/kg; ED90 [24]: 1.1 mg/kg; selectivity ratio [26]: > 1000; AUC [27]: 60 ng·h/mL; half-life [28]: 7.2 h
CN1CCCN(C(=O)c2ccc(-c3cnc(N)c(-c4ccc(C(F)(F)F)cc4)n3)cc2)CC1,,200 µM,6.8 nM,5.7 nM,152 µM,,90%,,7 days,,,,,,,,,5000 nM,,,
Nc1ncc(-c2ccc(C(=O)N3CCC(O)CC3)cc2)nc1-c1ccc(C(F)(F)F)nc1,,200 µM,10 nM,9 nM,184 µM,,64%,,7 days,85%,,> 90%,,> 90%,,7 days,,> 33000 nM,,> 90%,selectivity ratio [26]: > 868
Nc1ncc(-c2ccc(C(=O)N3CCC(O)C3)cc2)nc1-c1ccc(C(F)(F)F)cc1 (configuration not stated),2060 nM,129 µM,9.6 nM,6.8 nM,77 µM,3610 nM,99.6%,34.7 µM·h,8 days,,,> 90%,,> 90%,,,,,,> 90%,
Nc1ncc(-c2ccc(C(=O)O)cc2)nc1-c1ccc(C(F)(F)F)nc1,1480 nM,191 µM,19 nM,26 nM,178 µM,2290 nM,93%,30.8 µM·h,7 days,99.8%,845 nM,> 90%,< 0.5 mg/kg,> 90%,> 1800,10 days,168 nM,,38%,> 90%,IC50 [15]: 528 nM; AUC [27]: < 440 ng·h/mL; half-life [28]: 3.9 h
NC(=O)c1ccc(-c2cnc(N)c(-c3ccc(C(F)(F)F)cc3)n2)cc1,1800 nM,80 µM,14 nM,13 nM,< 5 µM,4000 nM,,42.3 µM·h,20 days,,237 nM,> 90%,< 0.1 mg/kg,> 90%,> 1800,>30 days,754 nM,,25%,> 90%,ED90 [24]: 0.3 mg/kg; AUC [27]: < 75 ng·h/mL; half-life [28]: 7 h
Nc1ncc(-c2ccc(C(=O)N3CCC(N)C3)cc2)nc1-c1ccc(C(F)(F)F)cc1 (configuration not stated),,165 µM,19 nM,12 nM,102 µM,,71%,,7 days,,,,,,,,,10000 nM,,,selectivity ratio [26]: 526
Nc1ncc(-c2ccc(C(=O)N3CC(O)C3)cc2)nc1-c1ccc(C(F)(F)F)cc1,,110 µM,9.2 nM,7 nM,55 µM,,99.7%,,10 days,99.9%,45 nM,> 90%,0.17 mg/kg,> 90%,> 1800,>30 days,415 nM,,20%,> 90%,clearance [11]: 22 mL/min/kg; half-life [12]: 3 h; IC50 [15]: 2.7 nM; Vd [16]: 5.7 L/kg; AUC [27]: 22 ng·h/mL; half-life [28]: 5.2 h
NC(=O)c1ccc(-c2cnc(N)c(-c3ccc(C(F)(F)F)nc3)n2)cc1,2900 nM,< 5 µM,20 nM,16 nM,< 5 µM,5000 nM,,69.3 µM·h,7.7 days,,,> 90%,,> 90%,,14 days,,,,> 90%,
